These results are taken from patent US8609659B2, “Substituted 3,8-diazabicyclo[3.2.1]octane compounds” (Neuroscienze Pharmaness S.C.A.R.L., priority 2009, dated 2013).

Broadly, the Ki is the equilibrium dissociation constant of an inhibitor or competing ligand from its target.

Where two headings read alike, the source gives them in different places.

The target in test [1] is T1, δ opioidergic receptors (Mus musculus, UniProt P32300).
T1 construct: from tissue; host or cells: CD1 mouse vas deferens segments (isolated organ)
T1 sequence (P32300 whole entry): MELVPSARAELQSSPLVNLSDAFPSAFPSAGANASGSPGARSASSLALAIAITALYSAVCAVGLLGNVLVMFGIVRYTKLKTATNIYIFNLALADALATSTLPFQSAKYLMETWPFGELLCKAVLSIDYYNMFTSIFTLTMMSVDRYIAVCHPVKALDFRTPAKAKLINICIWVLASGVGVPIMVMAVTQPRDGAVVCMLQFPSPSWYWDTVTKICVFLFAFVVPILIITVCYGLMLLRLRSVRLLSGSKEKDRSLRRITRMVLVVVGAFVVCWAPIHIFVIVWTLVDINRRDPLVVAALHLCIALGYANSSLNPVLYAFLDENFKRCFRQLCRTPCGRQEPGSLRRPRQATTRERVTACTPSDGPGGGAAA
Description: Radioreceptorial binding, δ opioidergic receptors ([3H]-DPDPE, mouse brain membranes). The following applies: 1 nM [3H]-DPDPE, CD1 mouse brain membranes, 25° C., 60 minutes.

Test [2] concerns the target T2, k opioidergic receptors (Mus musculus, UniProt P33534).
T2 construct: the complete brain (excluding the cerebellum) was quickly dissected and stored in ice; from tissue; host or cells: CD1 mouse brain (excluding cerebellum) membranes
Briefly: Radioreceptorial binding, k opioidergic receptors (3H-U 69.593, mouse brain membranes). The text has this:
The affinity of the compounds synthesized towards the opioidergic receptors μ, δ, k has been evaluated in vitro by radioreceptorial binding studies by using the method reported hereinunder.
For evaluating the affinity of a compound to a particular receptor(s) it is used a preparation of a tissue wherein the particular receptor(s) is (are) present, with which the compound is contacted. The tested compound is challenged with a radioactive labelled compound whose affinity for the same receptor(s) is known. The ability of the tested compound to displace the radioactive compound from the receptor gives an index of the affinity of the compound under test for the specific receptor. The amount of radioactivity present in the receptor-compound complex allows furthermore to calculate with great accuracy the amount of compound bound to the receptor. By said method it is therefore possible to quickly establish the affinity of a new compound towards a specific receptor and thus determine its pharmacological activity. With the same experimental protocol it is possible to evaluate the affinity of the compound towards other receptors and thus establishing the specificity degree of the compound towards these further receptors.
The experimentation has been carried out according to the guide lines of the European Community for the animal experimentation (EEC n. 86/609), by using laboratory animals (CD1 Charles River Italy male mice, Calco, LC, Italy) lodged twenty per cage, under standard stabulation conditions (temperature 22±2° C., relative humidity 60%, artificial lighting with light/dark cycle of 12 hours). The food and water were ad libitum.
Receptors k: CD1 male mice weighing 20-25 g were used. The animals were sacrificed by cervical dislocation and the complete brain (excluding the cerebellum) was quickly dissected and stored in ice. The tissue was homogeneized in 40 volumes (w/v) of Tris-HCl buffer (50 Mm, pH 7.4) by an Ultra-Turrax, then centrifuged for 20 minutes at 48,000×g in a centrifuge refrigerated at 4° C. The […] was resuspended in the same buffer and incubated at 37° C. for 30 minutes in an oscillating bath. At the end of the incubation the suspension was centrifuged at 48,000×g for 15 minutes and the obtained pellets resuspended in 10 volumes of Tris-HCl buffer. The binding experiment was carried out in a 1 ml volume of the suspension at the temperature of 25° C. with a protein content in the sample of about 800-1000 μg. Incubation was carried out for 60 minutes in the presence of various concentrations of the ligand ^3H-U 69.593 (41.7 Ci/mmole). The non specific binding was determined in the presence of U69593 (10 μM). Incubation was then interrupted by performing a quick filtration by filtration apparatus Brandell®, Gaithersburg, Md., USA), by using GF/C filters (Whatman®). Receptors μ and δ: the experiments were carried out according to the method described by Unterwald (1995), by using CD1 male mice weighing 20-25 g, lodged twenty in a cage, under standard stabulation conditions (temperature 22±2° C., relative humidity 60%, artificial lighting with light/dark cycle of 12 hours). After sacrifice, the complete brain (excluding the cerebellum) was quickly dissected. The so obtained tissues were rapidly homogenized, by a Polytron® equipment in 50 volumes of Tris HCl buffer (50 mM), pH 7.4 and the homogenate centrifuged at 48,000×g for 20 minutes at 4° C. The pellets obtained after centrifugation were suspended in 50 volumes of the same buffer and the so prepared suspensions were incubated at 37° C. for 45 minutes, in an oscillating bath, for making easier the separation of the endogenous opioids from the receptors. At the end of the incubation the suspensions were centrifuged at 48,000×g, for 20 minutes at 4° C. and the resulting pellets resuspended in 40 volumes of the Tris HCl (50 mM) buffer, pH 7.4. The suspension of cerebral membranes was used for the binding tests. […]

T2 sequence (P33534 whole entry): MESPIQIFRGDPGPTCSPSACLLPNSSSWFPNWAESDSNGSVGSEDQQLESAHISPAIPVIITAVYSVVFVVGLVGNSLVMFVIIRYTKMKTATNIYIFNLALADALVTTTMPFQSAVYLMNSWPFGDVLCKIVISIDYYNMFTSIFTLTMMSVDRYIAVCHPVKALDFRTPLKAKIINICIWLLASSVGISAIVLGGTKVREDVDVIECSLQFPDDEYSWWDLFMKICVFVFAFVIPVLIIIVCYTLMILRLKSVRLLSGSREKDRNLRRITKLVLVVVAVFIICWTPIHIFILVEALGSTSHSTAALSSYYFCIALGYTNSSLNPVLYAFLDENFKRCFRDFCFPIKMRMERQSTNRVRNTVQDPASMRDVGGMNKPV

With `C=CCN1C2CCC1C1CCC2N1C(c1ccc(C(=O)N(CC)CC)cc1)c1cccc(OC)c1` (stereo not shown) [Example 6.1, 4-[(10-allyl-9,10-diazatricyclo[4.2.1.1^2,5]dec-9-yl)-(3-methoxyphenyl)methyl]-N,N-diethylbenzamide], the values for the inhibitory constant (Ki) in test [1] and in test [2] were 0.203 ± 0.032 nM and 55 ± 25 nM, respectively.

Regarding `C=CCN1C2CCC1C1CCC2N1C(c1ccc(C(=O)N(CC)CC)cc1)c1cccc(O)c1` (stereo not shown) [Example 6.9, 4-[(10-allyl-9,10-diazatricyclo[4.2.1.1^2,5]dec-9-yl)-(3-hydroxyphenyl)methyl]-N,N-diethylbenzamide], the Ki was 0.23 ± 0.03 nM in test [1] and 4.8 ± 0.9 nM in test [2] (3H-U 69.593, CD1 mouse brain membranes, 25° C., 60 minutes, read-out: Ki k).
